Measured values published in PMC3160846 (PLoS ONE, 2011).

What was measured:
Aurora-A = target: T1, Aurora-A (Homo sapiens, UniProt O14965); assay: In vitro kinase inhibition assay, Aurora-A; type: biochemical; settings: recombinant GST-tagged Aurora-A, 37°C, 90 min
T1 construct: GST-tagged Aurora-A (residues S123-S401) containing kinase domain; GST; made in house; host or cells: Sf9 insect cells
Description: Aurora-A and Aurora-B kinase - The recombinant GST-tagged Aurora-A (residues S123-S401) containing kinase domain was expressed in Sf9 insect cells. The recombinant full length His-tagged Aurora-B (residues M1∼A344) was purchased from Invitrogen (PV3970). The kinase assay were carried out in 96-well plates with the tested compound at either 37°C (Aurora-A) for 90 min or 30°C (Aurora-B) for 120 min.
(§1) Composition of the reaction buffers used in different kinase inhibitory assays is described in Figure S3.
50 mM Tris-HCl pH 7.4, 10 mM NaCl, 10 mM MgCl2, 0.01% BSA, 5 mM ATP, 1 mM DTT and […] tetra(LRRASLG) peptide, and either 150 ng recombinant Aurora-A or 40 ng recombinant Aurora-B.

CHK2 = target: T2, CHK2 (Homo sapiens, UniProt O96017); assay: Kinase inhibition assay, CHK2; type: biochemical
T2 construct: CHK2 (residues M1-L543) containing kinase domain; His; made in house; host or cells: Sf9 insect cells
Description: CHK1/2 – The recombinant His-tagged CHK1 (residues M1-T476) or CHK2 (residues M1-L543) containing kinase domain were expressed in Sf9 insect cells. The kinase assay was carried out in 96-well plates with the tested compound at 30°C for 120 min.
as §1
25 mM HEPES pH 7.4, 10mM MgCl2, 4mM MnCl2, 0.5mM Na3VO4, 2 mM DTT, 0.02% Triton X100, 0.01% BSA, 1 mM ATP, 2 mM CHK peptide ([…]), 50~500 ng recombinant CHK1 or CHK2.

EGFR = target: T3, EGFR (Homo sapiens, UniProt P00533); assay: Kinase inhibition assay, EGFR; type: biochemical
T3 construct: GST-tagged EGFR (residues G696-G1022) containing kinase domain; GST; made in house; host or cells: Sf9 insect cells
Description: EGFR – The recombinant GST-tagged EGFR (residues G696-G1022) containing kinase domain was expressed in Sf9 insect cells. The kinase assay was carried out in 96-well plates with the tested compound at 37°C for 60 min.
as §1
25 mM Tris pH 7.4 (EGFR), 10 m M MgCl2, 4 mM MnCl2, 0.5 mM Na3VO4, 2 mM DTT, 0.02% Triton X100, 0.01% BSA, […], 2 mM polyGlu4:Tyr peptide, 80~500 ng recombinant EGFR.

VEGFR2 = target: T4, VEGFR2 (Homo sapiens, UniProt P35968); assay: Kinase inhibition assay, VEGFR2; type: biochemical
T4 construct: VEGFR2 (residues V789-V1356) containing kinase domain; GST; made in house; host or cells: Sf9 insect cells
Description: VEGFR1/2 – The recombinant GST-tagged VEGFR1 (residues R781-I1338) or VEGFR2 (residues V789-V1356) containing kinase domain were expressed in Sf9 insect cells. The kinase assay was carried out in 96-well plates with the tested compound at 30°C for 120 min.
as §1
25 mM HEPES pH 7.4, 10 mM MgCl2, 4mM MnCl2, 0.5mM Na3VO4, 2 mM DTT, 0.02% Triton X100, 0.01% BSA, 1 mM ATP, 2 mM polyGlu4:Tyr peptide, 50~100 ng recombinant VEGFR1 or VEGFR2.

OECM-1 cells = assay: Clonogenic assay, OECM-1; type: cell-based, Human; settings: Homo sapiens, OECM1; OECM-1, oral, p53 mutant, MDR1 negative; read-out: IC50, anti-proliferative activity
Description: (§2) Human lung adenocarcinoma A549 cells and NTUB1 bladder cancer cells were maintained in RPMI supplied with 10% fetal bovine serum. […] KB-derived MRP1-expressing cell line, KB-7D, was maintained in growth medium supplemented with 7 µM VP-16.
(§3) Two hundred cells in logarithmic growth phase were seeded in a 6-well plate. The cells were exposed to various concentrations of the test drugs for a three-generation period. At the end of the incubation period, cells were fixed and stained with 50% ethanol containing 0.5% methylene blue for 30 min. The plates were washed five times with water and allowed to air-dry. Colonies were countered manually. […] Each value represents the average of at least three independent experiments run in triplicates.

NTUB1 cells = assay: Clonogenic assay, NTUB1; type: cell-based, Human; settings: Homo sapiens; NTUB1, bladder, MDR1 negative (parental); read-out: IC50, anti-proliferative activity
Description: as §2, §3

HONE-1 cells = assay: Endo-replication (polyploidy), microscopy and flow cytometry, HONE-1; type: cell-based, Human; settings: HONE-1, 48 h
Description: Cell cycle progression was monitored using flow cytometry. After drug treatment, cells were trypsinized, washed with PBS and fixed in 80% ethanol at −20°C for 1 h. The fixed cells were stained with propidium iodide (containing RNase) at room temperature in the dark for 20 min. The DNA content was determined by a fluorescence-activated cell sorting IV flow cytometer (BD Biosciences, Franklin Lakes, NJ). For each analysis, 10,000 cells were counted and the percentage of cells in each phase was calculated using the ModFit LT software (Verity Software House, Topsham, ME). Experiments were repeated independently at least three times.

KB cells = assay: Autophagy (LC3 conversion, Western blot), KB; type: cell-based, Human; settings: 48 h or 72 h, full serum
Description: KB cells were treated with either DMSO (negative control) or BPR1K653 (48 h or 72 h) under full serum conditions. Cells cultured drug-free under reduced serum conditions were used as a positive control. Expression of various proteins was determined by Western blotting. The level of conversion of LC3-I to LC3-II provides an indicator of autophagic activity. (TIF) Click here for additional data file.

T3 sequence (P00533 696-1022): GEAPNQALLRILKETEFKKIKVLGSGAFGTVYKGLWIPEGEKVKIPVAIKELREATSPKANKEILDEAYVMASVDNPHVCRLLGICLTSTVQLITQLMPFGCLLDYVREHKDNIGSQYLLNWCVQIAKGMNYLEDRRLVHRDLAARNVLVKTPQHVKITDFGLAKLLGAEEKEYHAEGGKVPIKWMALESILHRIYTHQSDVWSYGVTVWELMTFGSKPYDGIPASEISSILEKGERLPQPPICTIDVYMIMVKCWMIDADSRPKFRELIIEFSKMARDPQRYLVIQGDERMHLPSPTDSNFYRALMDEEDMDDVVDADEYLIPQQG
T1 sequence (O14965 123-401): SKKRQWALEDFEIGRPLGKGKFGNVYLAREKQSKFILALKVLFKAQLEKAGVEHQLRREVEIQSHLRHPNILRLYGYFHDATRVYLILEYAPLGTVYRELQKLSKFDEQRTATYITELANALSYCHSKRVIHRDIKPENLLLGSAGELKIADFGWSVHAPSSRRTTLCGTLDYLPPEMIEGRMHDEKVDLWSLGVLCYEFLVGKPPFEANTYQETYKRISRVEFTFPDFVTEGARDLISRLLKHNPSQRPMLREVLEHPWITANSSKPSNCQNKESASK
T4 sequence (P35968 789-1356): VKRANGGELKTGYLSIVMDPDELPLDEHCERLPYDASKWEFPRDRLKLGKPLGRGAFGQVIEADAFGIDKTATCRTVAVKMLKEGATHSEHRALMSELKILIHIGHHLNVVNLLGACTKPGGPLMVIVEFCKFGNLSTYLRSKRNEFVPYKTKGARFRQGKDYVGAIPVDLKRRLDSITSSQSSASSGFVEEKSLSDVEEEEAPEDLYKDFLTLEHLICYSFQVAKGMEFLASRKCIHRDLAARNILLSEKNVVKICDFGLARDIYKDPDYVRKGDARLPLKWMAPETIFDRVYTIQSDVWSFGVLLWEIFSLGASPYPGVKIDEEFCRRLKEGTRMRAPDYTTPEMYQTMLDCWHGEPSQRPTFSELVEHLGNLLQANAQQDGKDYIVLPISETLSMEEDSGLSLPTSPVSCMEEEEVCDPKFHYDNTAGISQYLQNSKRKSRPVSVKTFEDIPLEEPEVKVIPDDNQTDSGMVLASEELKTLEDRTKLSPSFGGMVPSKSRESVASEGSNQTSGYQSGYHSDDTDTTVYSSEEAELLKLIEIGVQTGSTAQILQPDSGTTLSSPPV
T2 sequence (O96017 whole entry, the tested form may be a part): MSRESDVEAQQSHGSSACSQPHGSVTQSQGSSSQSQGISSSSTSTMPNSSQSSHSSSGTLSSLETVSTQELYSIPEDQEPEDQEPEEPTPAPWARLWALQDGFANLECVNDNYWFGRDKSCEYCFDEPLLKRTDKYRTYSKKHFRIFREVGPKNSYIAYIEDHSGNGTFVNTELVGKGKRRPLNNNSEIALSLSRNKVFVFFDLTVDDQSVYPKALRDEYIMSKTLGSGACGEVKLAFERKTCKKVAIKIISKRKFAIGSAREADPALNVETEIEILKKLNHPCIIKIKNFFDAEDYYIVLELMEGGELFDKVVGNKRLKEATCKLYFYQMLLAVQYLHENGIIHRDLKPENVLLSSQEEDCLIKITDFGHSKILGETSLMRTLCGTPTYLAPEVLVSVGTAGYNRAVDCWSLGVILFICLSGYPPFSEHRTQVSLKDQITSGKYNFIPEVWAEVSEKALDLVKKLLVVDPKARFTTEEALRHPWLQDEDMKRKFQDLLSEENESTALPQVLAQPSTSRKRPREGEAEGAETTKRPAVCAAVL

Q: CN(C)Cc1ccccc1NC(=O)Nc1ccc(CCNc2ncnc3oc(-c4ccccc4)c(Cl)c23)cc1 [BPR1K653] was tested. Which IC50 (Aurora-A) did it give?
A: 124 nM

Q: What about the IC50 (CHK2) of the same molecule?
A: 2300 nM

Q: And the IC50 (EGFR)?
A: > 10 µM

Q: What about the IC50 (VEGFR2) of the same molecule?
A: > 10 µM

Q: And the IC50 (OECM-1 cells)?
A: 135 ± 10 nM

Q: And the IC50 (NTUB1 cells)?
A: 8 ± 4 nM

Q: And the “formation of polyploidy (populations >4N)” value (HONE-1 cells)?
A: promoted the formation of polyploidy

Q: And the induction of autophagy (KB cells)?
A: not autophagy
